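1) Cells in 96-well plates. 2) Compound, 48 h, 5 concentrations. 3) Linear interpolation between surrounding doses. 4) Unreached endpoint = highest concentration. The concentration for 50% growth inhibition is given as GI50.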 Activity calls are given as the source filed them. No stated cut-off is given here; in the data, active = GI50 up to about 1.1 µM and inactive = higher.
Experiments:
Test in all cases: inhibition of tumour cell growth, NCI panel, 48 h
LOX IMVI = test system: LOX IMVI
CAKI-1 = test system: CAKI-1
SF-268 = test system: SF-268
SK-MEL-28 = test system: SK-MEL-28
MCF7 = test system: MCF7
KM12 = test system: KM12
SR = test system: SR
MDA-MB-231 = test system: MDA-MB-231
NCI/ADR-RES = test system: NCI/ADR-RES
MOLT-4 = test system: MOLT-4
K562 = test system: K562
SW-620 = test system: SW-620
SK-MEL-5 = test system: SK-MEL-5
PC-3 = test system: PC-3
OVCAR-4 = test system: OVCAR-4
NCI-H226 = test system: NCI-H226
A498 = test system: A498

Measured: GI50

CCOC(=O)NC(C(=O)OCC)C(F)(F)F (stereo not given)
inactive: LOX IMVI 76.6 µM | CAKI-1 > 100 µM | SF-268 > 100 µM | SK-MEL-28 > 100 µM | MCF7 > 100 µM | KM12 > 100 µM | SR 48.4 µM | MDA-MB-231 > 100 µM | NCI/ADR-RES > 100 µM | MOLT-4 93.8 µM | K562 > 100 µM | SW-620 > 100 µM | SK-MEL-5 > 100 µM | PC-3 > 100 µM

C=CC[C@]1(/C=N/O)CN(S(=O)(=O)CC[Si](C)(C)C)C[C@H]2CC=CC[C@H]21
inactive: OVCAR-4 14.8 µM | LOX IMVI 19.7 µM | CAKI-1 17.1 µM | SF-268 32.9 µM | SK-MEL-28 22.6 µM | MCF7 17.3 µM | KM12 24.6 µM | MDA-MB-231 24.4 µM | NCI/ADR-RES 39.8 µM | MOLT-4 16.4 µM | NCI-H226 19.5 µM | K562 18.4 µM | SW-620 18.1 µM | A498 17.7 µM | SK-MEL-5 29.4 µM | PC-3 17.6 µM

CCOC(=O)CSc1[nH]c(NC(=S)Nc2ccccc2)c(C(N)=O)c1C(N)=O
inactive: OVCAR-4 > 10 µM | LOX IMVI > 10 µM | CAKI-1 > 10 µM | SF-268 > 10 µM | SK-MEL-28 > 10 µM | MCF7 > 10 µM | KM12 > 10 µM | SR 3.67 µM | MDA-MB-231 > 10 µM | MOLT-4 6.21 µM | K562 > 10 µM | SW-620 > 10 µM | SK-MEL-5 > 10 µM | PC-3 > 10 µM

CC(C)=NNc1snnc1C(N)=O
inactive: LOX IMVI > 100 µM | CAKI-1 > 100 µM | SF-268 > 100 µM | SK-MEL-28 > 100 µM | MCF7 > 100 µM | KM12 > 100 µM | MDA-MB-231 > 100 µM | NCI/ADR-RES > 100 µM | MOLT-4 > 100 µM | NCI-H226 > 100 µM | K562 > 100 µM | SW-620 > 10 µM | A498 > 100 µM | SK-MEL-5 > 100 µM | PC-3 > 100 µM

O=C(NCCCN(CCCCN(CCCNC(=O)C(F)(F)F)Cc1ccccc1)Cc1ccccc1)C(F)(F)F
inactive: OVCAR-4 16.8 µM | LOX IMVI 8.43 µM | CAKI-1 13.6 µM | SF-268 12.5 µM | SK-MEL-28 12.6 µM | MCF7 12.3 µM | KM12 13.2 µM | MDA-MB-231 17.5 µM | NCI/ADR-RES 14.7 µM | MOLT-4 14.7 µM | NCI-H226 17.2 µM | K562 13.7 µM | SW-620 16.5 µM | A498 20.6 µM | SK-MEL-5 3.39 µM

O=C(O)C(O)(c1ccc(-c2ccccc2)cc1)c1ccc(-c2ccccc2)cc1
inactive: OVCAR-4 36 µM | LOX IMVI 17.9 µM | CAKI-1 28.8 µM | SF-268 24.3 µM | SK-MEL-28 35.3 µM | KM12 19.9 µM | SR 47.5 µM | MDA-MB-231 28.3 µM | NCI/ADR-RES 24.5 µM | MOLT-4 42.2 µM | NCI-H226 26.9 µM | K562 80.9 µM | SW-620 32.4 µM | A498 23.3 µM | SK-MEL-5 18.9 µM | PC-3 27 µM

Cc1ccc(S(=O)(=O)N2CCNCCN(S(=O)(=O)c3ccc(C)cc3)CCNCC2)cc1
inactive: OVCAR-4 32.2 µM | LOX IMVI 12.5 µM | CAKI-1 27.6 µM | SF-268 21.8 µM | SK-MEL-28 18.5 µM | MCF7 27.3 µM | KM12 20.8 µM | SR 16.4 µM | MDA-MB-231 23.7 µM | NCI/ADR-RES 61.1 µM | NCI-H226 19.3 µM | K562 14.2 µM | SW-620 35.5 µM | A498 23.2 µM | SK-MEL-5 16.3 µM

CCc1ccccc1NC(=O)C(=O)CC(=O)c1sc(Nc2ccccc2Cl)nc1C
inactive: OVCAR-4 36.8 µM | LOX IMVI 19.7 µM | CAKI-1 46.1 µM | SF-268 66.4 µM | SK-MEL-28 36 µM | MCF7 18.2 µM | KM12 29.6 µM | MDA-MB-231 27 µM | NCI/ADR-RES 25.8 µM | MOLT-4 14.9 µM | NCI-H226 29 µM | K562 29.4 µM | SW-620 25.6 µM | SK-MEL-5 17.6 µM | PC-3 26.9 µM

O=c1[nH]nc(-c2ccccc2)c2[nH]c3c4ccccc4ccc3c12
inactive: OVCAR-4 1.76 µM | SF-268 1.33 µM | MOLT-4 1.64 µM | NCI-H226 4.14 µM | A498 1.51 µM | PC-3 1.28 µM
active: MCF7 0.331 µM | KM12 0.692 µM | SR 0.251 µM | NCI/ADR-RES 0.379 µM | K562 0.279 µM | SW-620 0.656 µM | SK-MEL-5 0.587 µM

O=c1oc2ccc(Cl)cc2cc1-c1cn2ccsc2n1
inactive: OVCAR-4 33.4 µM | LOX IMVI 43.2 µM | CAKI-1 42.8 µM | SF-268 46.6 µM | SK-MEL-28 > 100 µM | MCF7 20.9 µM | KM12 42.4 µM | SR 24.8 µM | MDA-MB-231 24.6 µM | NCI/ADR-RES 61.1 µM | MOLT-4 24.4 µM | K562 33.5 µM | SW-620 59.7 µM | SK-MEL-5 51.1 µM | PC-3 52.6 µM

COc1ccc(-c2c(C(C)=O)c(-c3ccccc3)n(C3OC(CO)C(O)C(O)C3O)c(=S)c2C#N)cc1 (stereo not given)
inactive: OVCAR-4 > 100 µM | LOX IMVI > 100 µM | CAKI-1 > 100 µM | SF-268 > 100 µM | SK-MEL-28 > 100 µM | MCF7 > 100 µM | KM12 > 100 µM | MDA-MB-231 > 100 µM | NCI/ADR-RES > 100 µM | MOLT-4 > 100 µM | NCI-H226 > 100 µM | K562 > 100 µM | SW-620 > 100 µM | A498 > 100 µM | SK-MEL-5 > 100 µM

CC1=C[C@H](O)[C@@]2(C)[C@@H]([C@@H]1C)[C@H]1CC[C@@H]3[C@@]4(C)CC[C@H](O)C(C)(C)[C@@H]4CC[C@@]3(C)[C@]1(C)C[C@@H]2O
inactive: OVCAR-4 17.9 µM | LOX IMVI 21.5 µM | CAKI-1 20.8 µM | SF-268 10.5 µM | SK-MEL-28 18.3 µM | KM12 22.1 µM | MDA-MB-231 20.3 µM | NCI/ADR-RES 19.8 µM | MOLT-4 13.7 µM | NCI-H226 23.1 µM | K562 19.6 µM | SW-620 22.1 µM | SK-MEL-5 16.5 µM | PC-3 20.6 µM

O=[N+]([O-])c1cc(Cl)cnc1Br
inactive: OVCAR-4 2.28 µM | LOX IMVI 1.22 µM | CAKI-1 1.86 µM | SF-268 2.64 µM | SK-MEL-28 3.33 µM | MCF7 1.32 µM | KM12 4.03 µM | MDA-MB-231 3.45 µM | NCI/ADR-RES 2.14 µM | MOLT-4 1.25 µM | NCI-H226 2.61 µM | K562 2.64 µM | SW-620 3.42 µM | A498 17.1 µM | SK-MEL-5 2.4 µM | PC-3 7.53 µM

CCc1n[nH]c(=O)n1/N=C/c1ccc(/C=N/n2c(CC)n[nH]c2=O)cc1
inactive: OVCAR-4 > 100 µM | LOX IMVI > 100 µM | CAKI-1 > 100 µM | SF-268 > 100 µM | SK-MEL-28 > 100 µM | MCF7 > 100 µM | KM12 > 100 µM | MDA-MB-231 > 100 µM | NCI/ADR-RES > 100 µM | MOLT-4 > 100 µM | NCI-H226 > 100 µM | K562 > 100 µM | SW-620 > 100 µM | A498 > 100 µM | SK-MEL-5 > 100 µM | PC-3 > 100 µM

CCCCCCCCCCCCCCCCCCNC(=O)C(N)Cc1ccc(OCc2ccccc2)cn1 (stereo not given)
inactive: OVCAR-4 17.2 µM | LOX IMVI 17.4 µM | CAKI-1 17.2 µM | SF-268 21.9 µM | SK-MEL-28 24.1 µM | MCF7 19.4 µM | KM12 18.6 µM | MDA-MB-231 20.9 µM | NCI/ADR-RES 20 µM | MOLT-4 16 µM | K562 23.1 µM | SW-620 23.2 µM | A498 20.3 µM | SK-MEL-5 18 µM | PC-3 14.2 µM

CC1CC/C(=C\c2ccc(Cl)cc2)C2OC(N)=C(C#N)C(c3ccc(Cl)cc3)=C12 (stereo not given)
inactive: LOX IMVI 13 µM | CAKI-1 15.1 µM | SF-268 13.2 µM | SK-MEL-28 16.1 µM | MCF7 11.4 µM | KM12 11.7 µM | MDA-MB-231 10.4 µM | NCI/ADR-RES 11.6 µM | MOLT-4 4.37 µM | NCI-H226 11 µM | K562 9.66 µM | SW-620 21.4 µM | SK-MEL-5 15.4 µM | PC-3 11.9 µM

Nc1nc(SCCc2ccccc2)c2nc[nH]c2n1
inactive: OVCAR-4 > 100 µM | LOX IMVI 41.8 µM | CAKI-1 61.9 µM | SF-268 46.6 µM | SK-MEL-28 58.9 µM | KM12 > 100 µM | SR 36.2 µM | MDA-MB-231 51.1 µM | NCI/ADR-RES 51.2 µM | MOLT-4 33.6 µM | NCI-H226 61.9 µM | K562 48.1 µM | SW-620 76.9 µM | A498 19.1 µM | SK-MEL-5 45.1 µM | PC-3 38.9 µM

C1C2CC3CC1CC(c1nn4c(C56CC7CC(CC(C7)C5)C6)nnc4s1)(C2)C3
inactive: OVCAR-4 > 100 µM | LOX IMVI > 100 µM | CAKI-1 > 100 µM | SF-268 > 100 µM | SK-MEL-28 > 100 µM | KM12 > 100 µM | SR > 100 µM | MDA-MB-231 > 100 µM | NCI/ADR-RES > 100 µM | MOLT-4 > 100 µM | NCI-H226 > 100 µM | K562 > 100 µM | SW-620 > 100 µM | A498 > 100 µM | SK-MEL-5 > 100 µM | PC-3 > 100 µM

Reference: ChEMBL document CHEMBL1201862, “PubChem BioAssay data set” (2004)
